Reference: ChEMBL document CHEMBL1201861, “Genomics of Drug Sensitity in Cancer screening data, Wellcome Trust Sanger Institute”
pIC50: −log10 of the molar value.

What was measured:
SK-MEL-28 = test: cells; format: functional, cell-based; conditions: Homo sapiens
Description: SANGER: Inhibition of human SK-MEL-28 cell growth in a cell viability assay.

Calu-3 = test: cells; format: functional, cell-based; conditions: Homo sapiens
Description: SANGER: Inhibition of human Calu-3 cell growth in a cell viability assay.

786-0 = test: cells; format: functional, cell-based; conditions: Homo sapiens
Description: SANGER: Inhibition of human 786-0 cell growth in a cell viability assay.

RT-4 = test: SANGER: Inhibition of human RT4 cell growth in a cell viability assay.; format: functional, cell-based
DMS-53 = test: cells; format: functional, cell-based; conditions: Homo sapiens
Description: SANGER: Inhibition of human DMS-53 cell growth in a cell viability assay.

HN = test: cells; format: functional, cell-based; conditions: Homo sapiens
Description: SANGER: Inhibition of human HN cell growth in a cell viability assay.

EVSA-T = test: cells; format: functional, cell-based, Homo sapiens; conditions: Homo sapiens, EVSA-T
Description: SANGER: Inhibition of human EVSA-T cell growth in a cell viability assay.

KMOE-2 = test: cells; format: functional, cell-based, Homo sapiens; conditions: Homo sapiens, KMOE-2
Description: SANGER: Inhibition of human KMOE-2 cell growth in a cell viability assay.

FTC-133 = test: cells; format: functional, cell-based; conditions: Homo sapiens
COR-L23 = test: cells; format: functional, cell-based; conditions: Homo sapiens
Description: SANGER: Inhibition of human COR-L23 cell growth in a cell viability assay.

KU-19-19 = test: cells; format: functional, cell-based; conditions: Homo sapiens
Description: SANGER: Inhibition of human KU-19-19 cell growth in a cell viability assay.

MDA-MB-468 = test: cells; format: functional, cell-based; conditions: Homo sapiens
Description: SANGER: Inhibition of human MDA-MB-468 cell growth in a cell viability assay.

UO-31 = test: cells; format: functional, cell-based; conditions: Homo sapiens
Description: SANGER: Inhibition of human U031 cell growth in a cell viability assay.

TCC-SUP = test: cells; format: functional, cell-based; conditions: Homo sapiens
Description: SANGER: Inhibition of human TCCSUP cell growth in a cell viability assay.

EW-24 = test: cells; format: functional, cell-based, Homo sapiens; conditions: Homo sapiens, EW-24
Description: SANGER: Inhibition of human EW-24 cell growth in a cell viability assay.

C-4-II = test: SANGER: Inhibition of human C-4-II cell growth in a cell viability assay.; format: functional, cell-based
DK-MG = test: cells; format: functional, cell-based; conditions: Homo sapiens
Description: SANGER: Inhibition of human DK-MG cell growth in a cell viability assay.

HCC38 = test: cells; format: functional, cell-based; conditions: Homo sapiens
Description: SANGER: Inhibition of human HCC38 cell growth in a cell viability assay.

NCI-H345 = test: cells; format: functional, cell-based, Homo sapiens; conditions: Homo sapiens, NCI-H345
Description: SANGER: Inhibition of human NCI-H345 cell growth in a cell viability assay.

HLE = test: cells; format: functional, cell-based; conditions: Homo sapiens
Description: SANGER: Inhibition of human HLE cell growth in a cell viability assay.

CAL-39 = test: cells; format: functional, cell-based; conditions: Homo sapiens
Description: SANGER: Inhibition of human CAL-39 cell growth in a cell viability assay.

Calu-1 = test: SANGER: Inhibition of human Calu-1 cell growth in a cell viability assay.; format: functional, cell-based
23132-87 = test: cells; format: functional, cell-based; conditions: Homo sapiens
Description: SANGER: Inhibition of human 23132-87 cell growth in a cell viability assay.

RT-112 = test: cells; format: functional, cell-based; conditions: Homo sapiens
Description: SANGER: Inhibition of human RT-112 cell growth in a cell viability assay.

HSC-3 = test: cells; format: functional, cell-based; conditions: Homo sapiens
Description: SANGER: Inhibition of human HSC-3 cell growth in a cell viability assay.

BHT-101 = test: cells; format: functional, cell-based; conditions: Homo sapiens
Description: SANGER: Inhibition of human BHT-101 cell growth in a cell viability assay.

DV-90 = test: cells; format: functional, cell-based; conditions: Homo sapiens
Description: SANGER: Inhibition of human DV-90 cell growth in a cell viability assay.

HT55 = test: cells; format: functional, cell-based; conditions: Homo sapiens
Description: SANGER: Inhibition of human HT55 cell growth in a cell viability assay.

TE-15 = test: cells; format: functional, cell-based, Homo sapiens; conditions: Homo sapiens, TE-15
Description: SANGER: Inhibition of human TE-15 cell growth in a cell viability assay.

COLO 205 = test: cells; format: functional, cell-based; conditions: Homo sapiens
Description: SANGER: Inhibition of human COLO-205 cell growth in a cell viability assay.

EB2 = test: cells; format: functional, cell-based, Homo sapiens; conditions: Homo sapiens, EB2
Description: SANGER: Inhibition of human EB2 cell growth in a cell viability assay.

SK-MEL-24 = test: cells; format: functional, cell-based; conditions: Homo sapiens
Description: SANGER: Inhibition of human SK-MEL-24 cell growth in a cell viability assay.

NCI-H838 = test: cells; format: functional, cell-based; conditions: Homo sapiens
Description: SANGER: Inhibition of human NCI-H838 cell growth in a cell viability assay.

CAL-27 = test: cells; format: functional, cell-based; conditions: Homo sapiens
Description: SANGER: Inhibition of human CAL-27 cell growth in a cell viability assay.

MeWo = test: cells; format: functional, cell-based; conditions: Homo sapiens
Description: SANGER: Inhibition of human Mewo cell growth in a cell viability assay.

MIA PaCa-2 = test: cells; format: functional, cell-based; conditions: Homo sapiens
Description: SANGER: Inhibition of human MIA-PaCa-2 cell growth in a cell viability assay.

IPC-298 = test: SANGER: Inhibition of human IPC-298 cell growth in a cell viability assay.; format: functional, cell-based
EC-GI-10 = test: cells; format: functional, cell-based, Homo sapiens; conditions: Homo sapiens, EC-GI-10
Description: SANGER: Inhibition of human EC-GI-10 cell growth in a cell viability assay.

HCT-15 = test: cells; format: functional, cell-based; conditions: Homo sapiens
Description: SANGER: Inhibition of human HCT-15 cell growth in a cell viability assay.

MDA-MB-175-VII = test: cells; format: functional, cell-based; conditions: Homo sapiens
CHP-212 = test: cells; format: functional, cell-based; conditions: Homo sapiens
Description: SANGER: Inhibition of human CHP-212 cell growth in a cell viability assay.

T84 = test: cells; format: functional, cell-based; conditions: Homo sapiens
Description: SANGER: Inhibition of human T84 cell growth in a cell viability assay.

Capan-2 = test: cells; format: functional, cell-based; conditions: Homo sapiens
Description: SANGER: Inhibition of human Capan-2 cell growth in a cell viability assay.

NCI-H1734 = test: cells; format: functional, cell-based; conditions: Homo sapiens
Description: SANGER: Inhibition of human NCI-H1734 cell growth in a cell viability assay.

MG-63 = test: cells; format: functional, cell-based; conditions: Homo sapiens
Description: SANGER: Inhibition of human MG-63 cell growth in a cell viability assay.

HCC1143 = test: cells; format: functional, cell-based; conditions: Homo sapiens
Description: SANGER: Inhibition of human HCC1143 cell growth in a cell viability assay.

MRK-nu-1 = test: cells; format: functional, cell-based, Homo sapiens; conditions: Homo sapiens, MRK-nu-1
Description: SANGER: Inhibition of human MRK-nu-1 cell growth in a cell viability assay.

BC-3 = test: cells; format: functional, cell-based, Homo sapiens; conditions: Homo sapiens, BC-3
Description: SANGER: Inhibition of human BC-3 cell growth in a cell viability assay.

SW48 = test: cells; format: functional, cell-based; conditions: Homo sapiens
Description: SANGER: Inhibition of human SW48 cell growth in a cell viability assay.

TUR = test: cells; format: functional, cell-based, Homo sapiens; conditions: Homo sapiens, TUR
Description: SANGER: Inhibition of human TUR cell growth in a cell viability assay.

## C/C(=C\c1csc(C)n1)[C@@H]1C[C@@H]2O[C@]2(C)CCC[C@H](C)[C@H](O)[C@@H](C)C(=O)C(C)(C)[C@@H](O)CC(=O)O1 [PATUPILONE]
SK-MEL-28
  pIC50: < 7.49
Calu-3
  pIC50: 8.77
786-0
  pIC50: 9.96
RT-4
  pIC50: < 7.49
DMS-53
  pIC50: < 7.49
HN
  pIC50: < 7.49
EVSA-T
  pIC50: 7.51
KMOE-2
  pIC50: < 7.49
FTC-133
  pIC50: 7.52
COR-L23
  pIC50: 8.87
KU-19-19
  pIC50: < 7.49
MDA-MB-468
  pIC50: 8.76
UO-31
  pIC50: 8.51
TCC-SUP
  pIC50: 8.35
EW-24
  pIC50: < 7.49
C-4-II
  pIC50: 8.27
DK-MG
  pIC50: < 7.49
HCC38
  pIC50: 8.42
NCI-H345
  pIC50: < 7.49
HLE
  pIC50: 10.08
CAL-39
  pIC50: 9.39
Calu-1
  pIC50: 7.97
23132-87
  pIC50: 8.44
RT-112
  pIC50: 9.21
HSC-3
  pIC50: 9.10
BHT-101
  pIC50: 8.82
DV-90
  pIC50: 7.83
HT55
  pIC50: < 7.49
TE-15
  pIC50: 9.65
COLO 205
  pIC50: 9.10
EB2
  pIC50: 8.43
SK-MEL-24
  pIC50: < 7.49
NCI-H838
  pIC50: 7.93
CAL-27
  pIC50: 8.86
MeWo
  pIC50: < 7.49
MIA PaCa-2
  pIC50: 8.88
IPC-298
  pIC50: 7.66
EC-GI-10
  pIC50: < 7.49
HCT-15
  pIC50: 9.14
MDA-MB-175-VII
  pIC50: < 7.49
CHP-212
  pIC50: 8.23
T84
  pIC50: 9.62
Capan-2
  pIC50: 7.52
NCI-H1734
  pIC50: 7.80
MG-63
  pIC50: 9.78
HCC1143
  pIC50: < 7.49
MRK-nu-1
  pIC50: 9.05
BC-3
  pIC50: 8.08
SW48
  pIC50: 8.38
TUR
  pIC50: 8.73

## CCCCCCCCCCCC1=C(O)C(=O)C=C(O)C1=O [EMBELIN]
SK-MEL-28
  pIC50: 5.07
Calu-3
  pIC50: 5.07
786-0
  pIC50: 5.06
RT-4
  pIC50: < 4.49
DMS-53
  pIC50: 4.81
HN
  pIC50: 4.60
EVSA-T
  pIC50: < 4.49
KMOE-2
  pIC50: 4.61
FTC-133
  pIC50: < 4.49
COR-L23
  pIC50: 5.02
KU-19-19
  pIC50: < 4.49
MDA-MB-468
  pIC50: < 4.49
UO-31
  pIC50: 4.72
TCC-SUP
  pIC50: 4.94
EW-24
  pIC50: < 4.49
C-4-II
  pIC50: < 4.49
DK-MG
  pIC50: < 4.49
HCC38
  pIC50: 4.75
NCI-H345
  pIC50: < 4.49
HLE
  pIC50: 5.23
CAL-39
  pIC50: 5.35
Calu-1
  pIC50: 4.77
23132-87
  pIC50: 4.63
RT-112
  pIC50: 4.90
HSC-3
  pIC50: 4.62
BHT-101
  pIC50: 4.70
DV-90
  pIC50: 4.52
HT55
  pIC50: < 4.49
TE-15
  pIC50: 5.14
COLO 205
  pIC50: 5.41
EB2
  pIC50: 5.21
SK-MEL-24
  pIC50: 5.33
NCI-H838
  pIC50: < 4.49
CAL-27
  pIC50: 4.88
MeWo
  pIC50: 4.80
MIA PaCa-2
  pIC50: 5.33
IPC-298
  pIC50: 4.87
EC-GI-10
  pIC50: < 4.49
HCT-15
  pIC50: 5.03
MDA-MB-175-VII
  pIC50: < 4.49
CHP-212
  pIC50: 5.51
T84
  pIC50: 5.01
Capan-2
  pIC50: 4.74
NCI-H1734
  pIC50: 4.83
MG-63
  pIC50: 5.02
HCC1143
  pIC50: 5.15
MRK-nu-1
  pIC50: 4.89
BC-3
  pIC50: < 4.49
SW48
  pIC50: 4.51
TUR
  pIC50: < 4.49

## COc1ccc(-c2cc3nccn3c(Nc3ncccc3C(N)=O)n2)cc1OC
SK-MEL-28
  pIC50: < 5.10
Calu-3
  pIC50: < 5.10
786-0
  pIC50: 5.87
RT-4
  pIC50: 5.18
DMS-53
  pIC50: < 5.10
HN
  pIC50: < 5.10
EVSA-T
  pIC50: < 5.10
KMOE-2
  pIC50: 5.70
FTC-133
  pIC50: < 5.10
COR-L23
  pIC50: 5.62
KU-19-19
  pIC50: < 5.10
MDA-MB-468
  pIC50: < 5.10
UO-31
  pIC50: 5.17
TCC-SUP
  pIC50: < 5.10
EW-24
  pIC50: < 5.10
C-4-II
  pIC50: < 5.10
DK-MG
  pIC50: < 5.10
HCC38
  pIC50: < 5.10
NCI-H345
  pIC50: < 5.10
HLE
  pIC50: 5.49
CAL-39
  pIC50: 5.45
Calu-1
  pIC50: < 5.10
23132-87
  pIC50: < 5.10
RT-112
  pIC50: < 5.10
HSC-3
  pIC50: < 5.10
BHT-101
  pIC50: < 5.10
DV-90
  pIC50: < 5.10
HT55
  pIC50: < 5.10
TE-15
  pIC50: 5.89
COLO 205
  pIC50: 5.63
EB2
  pIC50: 6.08
SK-MEL-24
  pIC50: < 5.10
NCI-H838
  pIC50: < 5.10
CAL-27
  pIC50: 5.34
MeWo
  pIC50: < 5.10
MIA PaCa-2
  pIC50: 5.27
IPC-298
  pIC50: < 5.10
EC-GI-10
  pIC50: < 5.10
HCT-15
  pIC50: 5.18
MDA-MB-175-VII
  pIC50: < 5.10
CHP-212
  pIC50: 5.19
T84
  pIC50: 5.49
Capan-2
  pIC50: < 5.10
NCI-H1734
  pIC50: 5.31
MG-63
  pIC50: < 5.10
HCC1143
  pIC50: < 5.10
MRK-nu-1
  pIC50: 5.54
BC-3
  pIC50: 5.61
SW48
  pIC50: 5.11
TUR
  pIC50: 5.59
